Test results from paper PMC9220351, “Evaluation of a Conformationally Constrained Indole Carboxamide as a Potential Efflux Pump Inhibitor in Pseudomonas aeruginosa” (Antibiotics, 2022).
Like-named read-outs stand apart in the source and are kept apart here.

Key:
[1] = tested on: P. aeruginosa DA7232 (gyrA-T83I, parC-S80L); test: MIC / levofloxacin potentiation, fluoroquinolone-resistant strain; assay type: cell-based, Pseudomonas aeruginosa
Text: (§1) P. aeruginosa ATCC 27853 was obtained from the American Type Culture Collection (ATCC; Manassas, VA, USA). P. aeruginosa multidrug-resistant isolates were obtained from the CDC and FDA Antibiotic Resistance Isolate Bank (Atlanta, GA, USA). P. aeruginosa DA7232 (gyrA-T83I, parC-S80L) was a kind gift from Prof. Dan I. Andersson, Uppsala University, Uppsala, Sweden, and has been characterized elsewhere. P. aeruginosa strains K767 (WT), K1455 (mexAB-oprM overexpressed), K2415 (mexXY-oprM overexpressed), and K3698 (oprM∆) were obtained from Prof. Keith Poole, Queen’s University, Kingston, Ontario, Canada and have been characterized elsewhere. Bacterial cells were grown in cation-adjusted Mueller Hinton (CAMH) media, brain heart infusion broth (BHI), or tryptic soy agar (TSA) plates were all obtained from Becton, Dickinson, and Company (BD; Franklin Lakes, NJ, USA). Aztreonam, ceftazidime, moxifloxacin, levofloxacin, minocycline, tigecycline, chloramphenicol, nitrocefin, and imipenem were purchased from TOKU-E (Bellingham, WA, USA). Azithromycin was purchased from Tokyo Chemical Industry (Portland, OR, USA). Cotrimoxazole was purchased from Toronto Research Chemicals (Toronto, ON, Canada). Doxycycline and polymyxin B were purchased from Sigma-Aldrich (St. Louis, MO, USA). Ethidium bromide (EtBr) and glucose were purchased from VWR (Radnor, PA, USA). MC-04,124 and TXA01182 were synthesized at TAXIS Pharmaceuticals. Carbonyl cyanide 3-chlorophenylhydrazone (CCCP) was purchased from Enzo Life Sciences (Farmingdale, NY, USA). DiOC2 (3) and propidium iodide were obtained from Thermo Fisher Scientific (Waltham, MA, USA).
(§2) MIC assays were performed as described previously.

[2] = tested on: 34 MDR P. aeruginosa clinical isolates (CDC & FDA AR Isolate Bank); test: microbe, parasite or virus in culture; assay type: cell-based, Pseudomonas aeruginosa; details: for MIC: Pseudomonas aeruginosa, alone or + labelled EPI […] (TXA09155 head: 50 µg/mL)
Text: as §1, with “Aztreonam, ceftazidime, moxifloxacin, levofloxacin, minocycline, tigecycline, chloramphenicol, nitrocefin, and imipenem were purchased from TOKU-E (Bellingham, WA, USA).” left out, “Cotrimoxazole was purchased from Toronto Research Chemicals (Toronto, ON, Canada). Doxycycline and polymyxin B were purchased from Sigma-Aldrich (St. Louis, MO, USA).” left out
as §2

P. aeruginosa ATCC 27853 = test: MIC / antibiotic potentiation assay, wild-type strain; details: for MIC: Pseudomonas aeruginosa
[3] = n: 34, in combination EPI fixed […]

`C[C@H]1COc2c(N3CCN(C)CC3)c(F)cc3c(=O)c(C(=O)O)cn1c23` [Levofloxacin] was tested, and the MIC ([1]; Pseudomonas aeruginosa, read-out: levofloxacin MIC in the presence of […] TXA09155) was 1 µg/mL, the “Levofloxacin MIC” value ([1]; levofloxacin alone, strain DA7232) was 256 µg/mL and the MIC ([2]; read-out: Levofloxacin MIC, strain AR-0229) was 64 µg/mL. The MIC ([2]; read-out: Levofloxacin MIC, strain AR-0230) was 64 µg/mL, the MIC ([2]; read-out: Levofloxacin MIC, strain AR-0231) was 64 µg/mL and the MIC ([2]; read-out: Levofloxacin MIC, strain AR-0232) was 8 µg/mL. The MIC ([2]; read-out: Levofloxacin MIC, strain AR-0233) was 4 µg/mL, the MIC ([2]; read-out: Levofloxacin MIC, strain AR-0234) was 8 µg/mL and the MIC ([2]; read-out: Levofloxacin MIC, strain AR-0236) was 32 µg/mL. It also gave an MIC ([2]; read-out: Levofloxacin MIC, strain AR-0239) of 64 µg/mL, an MIC ([2]; read-out: Levofloxacin MIC, strain AR-0240) of 128 µg/mL and an MIC ([2]; read-out: Levofloxacin MIC, strain AR-0241) of 64 µg/mL. For the same compound, the MIC ([2]; read-out: Levofloxacin MIC, strain AR-0242) was 16 µg/mL, the MIC ([2]; read-out: Levofloxacin MIC, strain AR-0244) was 128 µg/mL and the MIC ([2]; read-out: Levofloxacin MIC, strain AR-0245) was 128 µg/mL. For the same compound, the MIC ([2]; read-out: Levofloxacin MIC, strain AR-0246) was 64 µg/mL, the MIC ([2]; read-out: Levofloxacin MIC, strain AR-0247) was 2 µg/mL and the MIC ([2]; read-out: Levofloxacin MIC, strain AR-0248) was 16 µg/mL. It also gave an MIC ([2]; read-out: Levofloxacin MIC, strain AR-0249) of 64 µg/mL, an MIC ([2]; read-out: Levofloxacin MIC, strain AR-0250) of 64 µg/mL and an MIC ([2]; read-out: Levofloxacin MIC, strain AR-0252) of 32 µg/mL. For the same compound, the MIC ([2]; read-out: Levofloxacin MIC, strain AR-0253) was 2 µg/mL, the MIC ([2]; read-out: Levofloxacin MIC, strain AR-0256) was 0.5 µg/mL and the MIC ([2]; read-out: Levofloxacin MIC, strain AR-0258) was 0.5 µg/mL. It also gave an MIC ([2]; read-out: Levofloxacin MIC, strain AR-0259) of 0.5 µg/mL, an MIC ([2]; read-out: Levofloxacin MIC, strain AR-0260) of 64 µg/mL and an MIC ([2]; read-out: Levofloxacin MIC, strain AR-0261) of 8 µg/mL. The MIC ([2]; read-out: Levofloxacin MIC, strain AR-0262) was 4 µg/mL, the MIC ([2]; read-out: Levofloxacin MIC, strain AR-0264) was 32 µg/mL and the MIC ([2]; read-out: Levofloxacin MIC, strain AR-0265) was 64 µg/mL. It also gave an MIC ([2]; read-out: Levofloxacin MIC, strain AR-0266) of 32 µg/mL, an MIC ([2]; read-out: Levofloxacin MIC, strain AR-0267) of 32 µg/mL and an MIC ([2]; read-out: Levofloxacin MIC, strain AR-0269) of 32 µg/mL. For the same compound, the MIC ([2]; read-out: Levofloxacin MIC, strain AR-0270) was 32 µg/mL, the MIC ([2]; read-out: Levofloxacin MIC, strain AR-0271) was 32 µg/mL and the MIC ([2]; read-out: Levofloxacin MIC, strain AR-0272) was 16 µg/mL. The “Cumulative Susceptibility % Strains at 0.5” value ([2]; concentration 0.5 µg/ml, n: 34) was 9%, the “Cumulative Susceptibility % Strains at 1” value ([2]; concentration 1 µg/ml, n: 34) was 9% and the “Cumulative Susceptibility % Strains at 2” value ([2]; concentration 2 µg/ml, n: 34) was 15%. The “Cumulative Susceptibility % Strains at 4” value ([2]; concentration 4 µg/ml, n: 34) was 21%, the “Cumulative Susceptibility % Strains at 8” value ([2]; concentration 8 µg/ml, n: 34) was 29% and the “Cumulative Susceptibility % Strains at 16” value ([2]; concentration 16 µg/ml, n: 34) was 38%. For the same compound, the “Cumulative Susceptibility % Strains at 32” value ([2]; concentration 32 µg/ml, n: 34) was 62%, the “Cumulative Susceptibility % Strains at 0.06” value ([2]; concentration column 0.06 µg/ml, n: 34) was 0% and the “Cumulative Susceptibility % Strains at 64” value ([2]; concentration column 64 µg/ml, n: 34) was 91%. For the same compound, the “Cumulative Susceptibility % Strains at 128” value ([2]; concentration column 128 µg/ml, n: 34) was 100%, the “Cumulative Susceptibility % Strains at ≤0.03” value ([2]; concentration column ≤0.03 µg/ml, n: 34) was 0% and the MIC50 [2, 3] was 32 µg/mL. For the same compound, the MIC90 [2, 3] was 64 µg/mL, the “MIC Range” value [2, 3] was 0.5 to 128 µg/mL and the “MIC Range” value ([2]; n: 34, in combination EPI fixed […], listed as LVX) was 0.5 to 128 µg/mL. The MIC (P. aeruginosa ATCC 27853; ATCC27853, read-out: Antibiotic MIC in Presence of TXA09155 at a Concentration of 0) was 1 µg/mL, the MIC (P. aeruginosa ATCC 27853; ATCC27853, read-out: MICs, Lack of EPI) was 1 µg/mL and the “Antibiotic MIC in Presence of TXA09155 at a Concentration of 3.13” value (P. aeruginosa ATCC 27853; TXA09155 3.13 μg/mL) was 1 µg/mL. For the same compound, the “Antibiotic MIC in Presence of TXA09155 at a Concentration of 25” value (P. aeruginosa ATCC 27853; TXA09155 25 μg/mL) was 0.063 µg/mL.
